Measured values published in publication PMC8878317, “Chemogenomics identifies acetyl-coenzyme A synthetase as a target for malaria treatment and prevention” (Cell Chemical Biology, 2022).

Test system: P. falciparum 3D7 parasites
Assay: Metabolomic profiling of compound-treated parasites (LC/MS);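 as to Metabolite data: 3-Phosphoglycerate: Log2 fold change in abundance versus untreated parasite controls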;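 as to Metabolite data: Myo-Inositol: Log2 fold change in abundance versus untreated parasite controls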;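 as to Metabolite data: N-Carbamoyl-L-Aspartate: Log2 fold change in abundance versus untreated parasite controls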;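 as to Metabolite data: Nicotinate: Log2 fold change in abundance versus untreated parasite controls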
Assay type: cell-based
Design: Metabolite data: dTMP / Metabolite data: GMP / Metabolite data: S-Adenosyl-L-Homocysteine / Metabolite data: 1_3-Bisphosphoglyceric acid: scale not given here
Method: The metabolite extraction protocol was performed as described elsewhere ([Allman et al., 2016]). Briefly, 1 mL of trophozoites that were magnetically purified to a concentration of 1×10^8 parasites/mL were placed into wells with 4 mL of RPMI 1640 media and allowed to recover for one hour. […] The culture was incubated for another 2.5 hr. The culture was centrifuged and quenched with 90% methanol containing 0.25 μM ^13C,^15N-Labeled-Aspartate, vortexed, and centrifuged. The supernatant was transferred to a new tube and dried for storage. Prior to analysis, the samples were resuspended to a final concentration of 1×10^8 parasites/mL in a solution of 3% methanol:water containing 1 μM chlorpropamide as an internal standard.
The chromatographic conditions used in this experiment were performed with slight modifications from previous methods ([Zhang et al., 2018]). Briefly, a Waters XSelect HSS C18 column was used on a gradient reverse-phase chromatographic configuration with 97:3 water:methanol with 10 mM tributylamine and 15 mM acetic acid (solvent A) and methanol (solvent B). A Thermo-Scientific Exactive Plus Orbitrap mass spectrometer was operated in negative mode for the detection of the metabolites. Peak picking and integration were performed using El-Maven LC/MS data processing software. The peak data were then exported to Excel where metabolite areas were normalized to the internal standards, blank subtracted, and averaged by condition.

C[C@H]1Cc2c([nH]c3cc(Cl)c(F)cc23)[C@@]2(N1)C(=O)Nc1ccc(Cl)cc12 [NITD609]
Metabolite data: 1_3-Bisphosphoglyceric acid: 0 | Metabolite data: 2_3-Diphosphoglyceric acid: -2.22 | Metabolite data: 3-Phosphoglycerate: 0.01 | Metabolite data: 4-Aminobutyrate: -0.54 | Metabolite data: 4-Phosphopantothenate: -0.15 | Metabolite data: 4-phosphopantetheine: 0 | Metabolite data: 5-aminopentanoic acid: 0 | Metabolite data: 5-phosphoribosyl-1-pyrophosphate: 0 | Metabolite data: 6-Phospho-D-Gluconate: -0.28 | Metabolite data: ADP-D-Glucose: 0.02 | Metabolite data: Acetyl-CoA: -0.54 | Metabolite data: Acetyllysine: -1.93 | Metabolite data: Aconitate: 0.62 | Metabolite data: CDP: -0.29 | Metabolite data: CDP-Ethanolamine: -0.28 | Metabolite data: CDP-choline: 0 | Metabolite data: CMP: 1.24 | Metabolite data: CTP: -1.27 | Metabolite data: Citrate/Isocitrate: 0.19 | Metabolite data: Cyclic-AMP: -1.16 | Metabolite data: Dihydroorotate: -2.01 | Metabolite data: FAD: -1.31 | Metabolite data: FMN: -1 | Metabolite data: Fructose-1,6-Bisphosphate: -1.13 | Metabolite data: Fumarate: -0.06 | Metabolite data: GDP: -2.58 | Metabolite data: GMP: -2.42 | Metabolite data: GTP: -1.11 | Metabolite data: Glucose-1/6-Phosphate: -0.9 | Metabolite data: Glutathione Disulfide: -0.38 | Metabolite data: Hexose: 0 | Metabolite data: Hydroxyisocaproic acid: 0 | Metabolite data: Indole: 0.17 | Metabolite data: Ketoleucine: 0 | Metabolite data: L-arginino-succinate: 0 | Metabolite data: Lactate: -1.31 | Metabolite data: Malate: -0.06 | Metabolite data: Myo-Inositol: -3.27 | Metabolite data: N-Acetyl-Glutamate: -0.27 | Metabolite data: N-Acetyl-L-Alanine: -1.42 | Metabolite data: N-Acetyl-L-Ornithine: -1.27 | Metabolite data: N-Carbamoyl-L-Aspartate: -4.57 | Metabolite data: NAD+: -0.4 | Metabolite data: NADH: 0.03 | Metabolite data: NADP+: -0.12 | Metabolite data: NADPH: 0.35 | Metabolite data: Nicotinate: 0.78 | Metabolite data: Octulose 8/1-Phosphate: -1.92 | Metabolite data: Orotate: 0.91 | Metabolite data: PD: 0 | Metabolite data: PE: 0 | Metabolite data: PEEK: 0 | Metabolite data: Phenol Red: 0 | Metabolite data: Pyroglutamic acid: -0.06 | Metabolite data: S-Adenosyl-L-Homocysteine: -1.64 | Metabolite data: S-methyl-5'-thioadenosine: -0.53 | Metabolite data: SD: 0 | Metabolite data: Sedoheptulose Bisphosphate: -1.34 | Metabolite data: UDP: -0.96 | Metabolite data: UDP-D-Glucose: -0.2 | Metabolite data: UDP-D-Glucuronate: -0.36 | Metabolite data: UDP-N-Acetyl-Glucosamine: 0.03 | Metabolite data: UMP: -0.38 | Metabolite data: UTP: -2.05 | Metabolite data: a-ketoglutarate: 0.5 | Metabolite data: acetyl-aspartate: 0 | Metabolite data: arginine: 0 | Metabolite data: asparagine: 0 | Metabolite data: aspartate: 0 | Metabolite data: biotin: 0 | Metabolite data: chlorpropamide: 0 | Metabolite data: coenzyme A: 0 | Metabolite data: dAMP: 2.56 | Metabolite data: dATP: -0.71 | Metabolite data: dCDP: 1.68 | Metabolite data: dCMP: 1.5 | Metabolite data: dCTP: 0.45 | Metabolite data: dGDP/ADP: 0 | Metabolite data: dGMP/AMP: -1.14 | Metabolite data: dGTP/ATP: 0 | Metabolite data: dTDP: 2.45 | Metabolite data: dTMP: 3.96 | Metabolite data: dTTP: 1.4 | Metabolite data: folate: 0 | Metabolite data: glucono-lactone: 0 | Metabolite data: glutamate: 0 | Metabolite data: glutamine: 0 | Metabolite data: glutathione: 0 | Metabolite data: histidine: 0 | Metabolite data: hydroxyproline/Aminolevulinate: 0 | Metabolite data: isoleucine: 0 | Metabolite data: leucine: 0 | Metabolite data: maleic acid: 0 | Metabolite data: methionine: 0 | Metabolite data: nicotinamide mononucleotide: 0 | Metabolite data: orotidine-5'-phosphate: 0

CCc1nc(N)nc(N)c1-c1ccc(Cl)cc1 [Pyrimethamine]
Metabolite data: 1_3-Bisphosphoglyceric acid: 0 | Metabolite data: 2_3-Diphosphoglyceric acid: 0.1448 | Metabolite data: 3-Phosphoglycerate: 0.06527 | Metabolite data: 4-Aminobutyrate: 0.06366 | Metabolite data: 4-Phosphopantothenate: 0.159 | Metabolite data: 4-phosphopantetheine: 0 | Metabolite data: 5-aminopentanoic acid: 0 | Metabolite data: 5-phosphoribosyl-1-pyrophosphate: 0 | Metabolite data: 6-Phospho-D-Gluconate: 0.08879 | Metabolite data: ADP-D-Glucose: 0.2656 | Metabolite data: Acetyl-CoA: 0.1996 | Metabolite data: Acetyllysine: 0.2921 | Metabolite data: Aconitate: 0.4355 | Metabolite data: CDP: 0.1713 | Metabolite data: CDP-Ethanolamine: 1.312 | Metabolite data: CDP-choline: 0 | Metabolite data: CMP: 0.005842 | Metabolite data: CTP: -0.1699 | Metabolite data: Citrate/Isocitrate: -0.2585 | Metabolite data: Cyclic-AMP: 0.06421 | Metabolite data: Dihydroorotate: 1.359 | Metabolite data: FAD: 0.05439 | Metabolite data: FMN: -0.4759 | Metabolite data: Fructose-1,6-Bisphosphate: 0.2831 | Metabolite data: Fumarate: 0.3378 | Metabolite data: GDP: 0.005686 | Metabolite data: GMP: 0.1718 | Metabolite data: GTP: -0.6779 | Metabolite data: Glucose-1/6-Phosphate: 0.1953 | Metabolite data: Glutathione Disulfide: 0.3348 | Metabolite data: Hexose: 0 | Metabolite data: Hydroxyisocaproic acid: 0 | Metabolite data: Indole: -0.02333 | Metabolite data: Ketoleucine: 0 | Metabolite data: L-arginino-succinate: 0 | Metabolite data: Lactate: 0.8185 | Metabolite data: Malate: 0.5597 | Metabolite data: Myo-Inositol: 2.112 | Metabolite data: N-Acetyl-Glutamate: 0.1671 | Metabolite data: N-Acetyl-L-Alanine: 0.1511 | Metabolite data: N-Acetyl-L-Ornithine: 0.1555 | Metabolite data: N-Carbamoyl-L-Aspartate: 0.3085 | Metabolite data: NAD+: 0.008224 | Metabolite data: NADH: 4.9 | Metabolite data: NADP+: 0.03009 | Metabolite data: NADPH: 1.808 | Metabolite data: Nicotinate: 0.1972 | Metabolite data: Octulose 8/1-Phosphate: -0.1128 | Metabolite data: Orotate: 0.09092 | Metabolite data: PD: 0.177 | Metabolite data: PE: -0.01685 | Metabolite data: PEEK: 0 | Metabolite data: Phenol Red: 0 | Metabolite data: Pyroglutamic acid: 0.09576 | Metabolite data: S-Adenosyl-L-Homocysteine: 0.08183 | Metabolite data: S-methyl-5'-thioadenosine: 0.0579 | Metabolite data: SD: 0.04153 | Metabolite data: Sedoheptulose Bisphosphate: 0.1986 | Metabolite data: UDP: 0.2702 | Metabolite data: UDP-D-Glucose: 0.138 | Metabolite data: UDP-D-Glucuronate: 0.02668 | Metabolite data: UDP-N-Acetyl-Glucosamine: 0.1474 | Metabolite data: UMP: 0.1095 | Metabolite data: UTP: -0.3099 | Metabolite data: a-ketoglutarate: 0.2017 | Metabolite data: acetyl-aspartate: 0 | Metabolite data: arginine: 0 | Metabolite data: asparagine: 0 | Metabolite data: aspartate: 0 | Metabolite data: biotin: 0 | Metabolite data: chlorpropamide: 0 | Metabolite data: coenzyme A: 0 | Metabolite data: dAMP: -0.3497 | Metabolite data: dATP: 0.1703 | Metabolite data: dCDP: 0.2805 | Metabolite data: dCMP: 0.1423 | Metabolite data: dCTP: -0.258 | Metabolite data: dGDP/ADP: 0.2431 | Metabolite data: dGMP/AMP: -0.07108 | Metabolite data: dGTP/ATP: 0 | Metabolite data: dTDP: 0.3943 | Metabolite data: dTMP: 0.05289 | Metabolite data: dTTP: -0.1782 | Metabolite data: folate: 0 | Metabolite data: glucono-lactone: 0 | Metabolite data: glutamate: 0 | Metabolite data: glutamine: 0 | Metabolite data: glutathione: 0 | Metabolite data: histidine: 0 | Metabolite data: hydroxyproline/Aminolevulinate: 0 | Metabolite data: isoleucine: 0 | Metabolite data: leucine: 0 | Metabolite data: maleic acid: 0 | Metabolite data: methionine: 0 | Metabolite data: nicotinamide mononucleotide: 0 | Metabolite data: orotidine-5'-phosphate: 0
